Measured values from patent US20060270694A1, “JAK kinase inhibitors and their uses” (Rigel Pharmaceuticals, Inc., priority 2005, published 2006).

Tested on: JAK kinase (JAK1 and JAK3)
Assay: IL-4 activation assay: CD23 upregulation in IL-4 stimulated Ramos B-cells, FACS
Type: cell-based, human
Settings: TABLE 2; IC50 CHMC degranulation (tryptase) / IC50 IL-4 Ramos CD23
Protocol: The selectivity of the compounds illustrated in TABLES 1 and 2 for JAK kinases as compared to Syk kinase was confirmed in cellular assays designed to test for JAK and Syk inhibition. Briefly, JAK inhibition was tested in human Ramos B-cells activated with IL-4. Twenty to 24 hours post stimulation, the cells are stained for upregulation of CD23 and analyzed by FACS. Stimulation of the B-cells with IL-4 leads to the activation of the JAK/STAT pathway through phosphorylation of the JAK kinase JAK1 and JAK3, which in turn phosphorylate and activate transcription of factor […].
For the assay, human Ramos B-cells (ATCC, Catalog No. CRL-1596) are cultured in RPMI 1640 medium (Cellgro, Catalog No. 10-040-CM) containing 10% fetal bovine serum (JRH, Catalog No. 12106-500M) according to the propagation protocol supplied with the cells, and maintained at a density of approximately 3.5×10^5 cells/ml. The day before the assay, the cells are diluted to 3.5×10^5 cells/ml to insure they are in the logorithmic growth phase. The cells are spun down, and suspended in RPMI 1640 medium containing 5% fetal bovine serum to a density of 3.5×10^4 cells/ml and aliquots dispensed into a 96-well tissue culture plate. Cells are incubated with test compound (dissolved in DMSO) or DMSO (control) for 1 hr at 37° C. and then stimulated with IL-4 (Pepotech, Catalog No. 200-04) for 20-24 hours (final concentration is 50 Units/ml). Cells are then spun down, stained with anti-CD23-PE antibody (BD Pharmigen, Catalog No.555711) and analyzed by FACS.

Structure (SMILES) | IC50 Ratio (Syk/JAK)
CNC(=O)COc1cccc(Nc2ncc(F)c(Nc3cccc(OC(=O)N(C(=O)NC(C)C)C(C)C)c3)n2)c1 [Cmpd 71] | 15
CN1CCN(c2ccc(Nc3ncc(F)c(NC4CCCC4)n3)cc2Cl)CC1 [Cmpd 72] | 14
COC(=O)CNC(=O)c1ccc(Nc2ncc(F)c(Nc3ccc(C(N)=O)cc3)n2)cc1 [Cmpd 73] | 14
O=C(Nc1ccc(Nc2ncc(F)c(NC3CCCCC3)n2)cc1)c1ccccc1 [Cmpd 74] | 14
COc1ccc(Nc2ncc(F)c(Nc3ccc4c(c3)NC(=O)CO4)n2)cc1Cl [Cmpd 75] | 14
COc1cc(Nc2nc(Nc3ccc(CN)cc3)ncc2F)cc(OC)c1 [Cmpd 76] | 14
Cc1cc(Nc2ncc(F)c(NC3CCCC3)n2)cnc1N1CCN(C)CC1 [Cmpd 77] | 13
Cc1noc(COc2ccc(Nc3nc(Nc4ccc(C(N)=O)c(O)c4)ncc3F)cc2)n1 [Cmpd 78] | 13
O=C1Nc2cc(Nc3nc(Nc4ccc(-c5cnco5)cc4)ncc3F)ccc2OC1CCO (stereo not shown) [Cmpd 79] | 12
COc1ccc(Nc2nc(Nc3cc(Cl)c(O)c(Cl)c3)ncc2F)cc1Cl [Cmpd 80] | 11
CNC(=N)COc1ccc(Nc2nc(Nc3ccc4c(c3)OCCO4)ncc2F)cc1 [Cmpd 81] | 11
Cc1noc(COc2ccc(Nc3nc(Nc4ccc(C(N)=O)cc4)ncc3F)cc2)n1 [Cmpd 82] | 10
COc1ccc(Nc2nc(Nc3ccc(C(N)=O)c(Cl)c3)ncc2F)cc1Cl [Cmpd 83] | 10
CNC(=O)Cn1ncc2ccc(Nc3nc(Nc4ccc5c(c4)OCCO5)ncc3F)cc21 [Cmpd 84] | 10
CNS(=O)(=O)c1ccc(Nc2ncc(F)c(Nc3ccc(OC)c(OC)c3)n2)cc1OC [Cmpd 85] | 10
CNC(=O)COc1cccc(Nc2ncc(F)c(Nc3ccc4c(c3)C(N(C)C(=O)OC(C)(C)C)CCO4)n2)c1 (stereo not shown) [Cmpd 86] | 10
CN1CCN(c2ccc(Nc3ncc(F)c(NC4CCCC4C(N)=O)n3)cc2Cl)CC1 (stereo not shown) [Cmpd 87] | 10
COC(=O)CNC(=O)c1ccc(Nc2nc(Nc3cccc(O)c3)ncc2F)cc1 [Cmpd 88] | 10
Cc1cc(Nc2nc(Nc3ccc(C(N)=O)c(Cl)c3)ncc2F)ccc1N1CCN(C)CC1 [Cmpd 89] | 10
